For test [1], the system named is E. coli Rosetta DE3 pLysS. Nature of the test: MIC, liquid broth microdilution. The class given is cell-based, Escherichia coli. Conditions: 25% MHBII medium, 7.5 × 10^6 CFU/mL, 37 °C, 20 ± 2 h, turbidity 600 nm, at least twice in triplicate. On the procedure: (§1) The minimal inhibitory concentrations (MIC) were determined at least twice in triplicate using a liquid broth microdilution assay in sterile 96-well plates and a total volume of 100 μL per well. Aqueous peptide solutions were serially 2-fold diluted in 25% MHBII or 33% TSB medium in a volume of 50 µL. An overnight culture was diluted in 25% MHBII or 33% TSB medium to 1.5 × 10^7 CFU/mL, and an aliquot of 50 μL was added to each well. The final cell count in each well was 7.5 × 10^6 CFU/mL. The plates were incubated at 37 °C for 20 ± 2 h. The turbidity of each well was measured at a wavelength of 600 nm. The MIC was defined as the lowest peptide concentration where the turbidity was identical to medium only.

In test [2] the target is BW25113 ribosome extract, ribosomal binding site of Onc112. Nature of the test: Fluorescence polarization competition against cf-Onc112 (Ki). Also on record: species or system Escherichia coli. Conditions: unlabeled PrAMP against cf-labeled Onc112, calculated from IC50, 95% confidence interval in brackets. On the procedure:
E. coli BW25113 and E. coli Rosetta pLysS were cultivated in LB medium and harvested at an OD600 of ~4 by centrifugation (5000× g, 30 min, 4 °C). The cell pellets were washed by resuspension in ribosome preparation buffer (20 mmol/L Hepes-KOH, 6 mmol/L MgCl2, 30 mmol/L NH4Cl, pH 7.6, 4°C) and subsequent centrifugation (5000× g, 30 min, 4 °C). Cell pellets were suspended in ribosome preparation buffer ([…]) containing freshly added 2-mercapotethanol (4 mmol/L). Lysozyme was added to the resuspended cells and incubated on ice for 30 min. The cell suspension was disrupted six times using a FastPrep-24^TM 5G instrument (MP Biomedicals, Solon, OH, USA) with BigPrep 50 mL setting (40 s, 4.0 m/s), incubated with DNase I (5 mL/L) on ice for one hour and centrifuged (16,000× g, 30 min, 4 °C). The cell debris was removed from the supernatant by centrifugation (32,000× g, 60 min, 4 °C), and the supernatant was centrifuged again (165,000× g, 17 h, 4 °C). The pellet was resuspended in ribosome preparation buffer (0.1 mL per g cell pellet) to obtain the 70S ribosome extract and stored at −80 °C. The ribosome concentration was estimated by recording the absorbance at 260 nm (1 AU for a ribosome concentration of 28 nmol/L). The molecular weight of the 70S E. coli ribosome was assumed to be 2.3 MDa.
Ki was determined for ribosome extracts using cf-labeled and unlabeled peptides in ribosome preparation buffer. Black 384-well plates were prepared as described above. Unlabeled peptides or antibiotics (20 µL, 656 µmol/L) were added and 2-fold serially diluted in 23 wells in ribosome preparation buffer. A ribosome solution was prepared by adjusting the ribosome concentration to ~90% of the upper Kd plateau obtained for the cf-labeled peptide to be studied and added to each well (10 µL). […] The fluorescence polarization was measured on a PARADIGMTM microplate reader in the top read position (λexc = 485 nm, λem = 535 nm) in triplicate on at least two different days. […] Inhibition constants, Ki, were calculated as described by Mathias and Jung.

Test [3] has as its system E. coli BW25113 ΔsbmA +psbmA_A31G/G219T. It counts as cell-based, Escherichia coli. On the procedure: as §1
Test [4] relates to 70S ribosome extract of E. coli Rosetta DE3 pLysS. In words: Fluorescence polarization, Kd of cf-labeled peptides. As to conditions: determined for the cf-labeled peptide, 28 °C, 90 min, 95% confidence interval in brackets, triplicate on at least two days, read-out: Kd, Ros. It counts as binding, Escherichia coli.

By Ki is commonly meant a dissociation constant, usually derived from enzyme kinetics or from competition with a known ligand. As a reminder, the Kd is the equilibrium constant for the complex coming apart.

≈ marks a conversion by molar mass, not a printed value. Peptide text beside a SMILES is read from it. * marks the point of attachment. Orn(α-tetramethylguanidino) = CN(C)C(=N[C@@H](CCCN)C(=O)*)N(C)C

As for `CC[C@H](C)[C@H](NC(=O)[C@H](Cc1ccc(O)cc1)NC(=O)[C@@H](NC(=O)[C@@H]1CCCN1C(=O)[C@H](CCCNC(=N)N)NC(=O)[C@H](CC(N)=O)NC(=O)[C@H](CC(N)=O)NC(=O)[C@H](CCCN)N=C(N(C)C)N(C)C)C(C)C)C(=O)N1CCC[C@H]1C(=O)N[C@@H](CCCNC(=N)N)C(=O)N1CCC[C@H]1C(=O)N[C@@H](CCCNC(=N)N)C(=O)N1CCC[C@H]1C(=O)N1CCC[C@H]1C(=O)N[C@@H](Cc1c[nH]cn1)C(=O)N1CCC[C@H]1C(=O)N[C@@H](CCCNC(=N)N)C(=O)N[C@@H](CC(C)C)C(N)=O` [Api88] ({Orn(α-tetramethylguanidino)}-NNRPVYIPRPRPPHPRL-NH2), in test [1], the “MIC, Ros” value is reported as 1 µg/mL (≈ 0.437 µM).

On to `CC[C@H](C)[C@H](NC(=O)[C@H](Cc1ccc(O)cc1)NC(=O)[C@@H](NC(=O)[C@@H]1CCCN1C(=O)[C@H](CCCNC(=N)N)NC(=O)[C@H](CC(N)=O)NC(=O)[C@H](CC(N)=O)NC(=O)[C@H](CCCN)N=C(N(C)C)N(C)C)C(C)C)C(=O)N1CCC[C@H]1C(=O)N[C@@H](CCCNC(=N)N)C(=O)N1CCC[C@H]1C(=O)N[C@@H](CCCNC(=N)N)C(=O)N1CCC[C@H]1C(=O)N1CCC[C@H]1C(=O)N[C@@H](Cc1c[nH]cn1)C(=O)N1CCC[C@H]1C(=O)N[C@@H](CCCNC(=N)N)C(=O)N[C@@H](CC(C)C)C(=O)O` [Api137] ({Orn(α-tetramethylguanidino)}-NNRPVYIPRPRPPHPRL-OH), for which, in test [2], the Ki is 219 nM. In test [3] (BW25113 ΔsbmA +psbmA_A31G/G219T, 25% MHBII containing IPTG (0.1 mmol/L)), the “MIC, 25% MHBII” value worked out at 2 µg/mL (≈ 0.873 µM). Besides, in test [3] (BW25113 ΔsbmA +psbmA_A31G/G219T, 33% TSB containing IPTG (0.1 mmol/L)), the “MIC, 33% TSB” value was 8 µg/mL (≈ 3.49 µM). In test [4], the Kd came out at 198 nM. Further, the “MIC, Ros” value in test [1] stood at 2 µg/mL (≈ 0.873 µM).

In the case of `CC[C@H](C)[C@H](NC(=O)[C@@H]1CCCN1C(=O)[C@H](CCCNC(=N)N)NC(=O)[C@H](CC(N)=O)NC(=O)[C@H](CC(N)=O)NC(=O)CN)C(=O)N[C@@H](Cc1ccc(O)cc1)C(=O)N[C@H](C(=O)N1CCC[C@H]1C(=O)N[C@@H](CCCNC(=N)N)C(=O)N1CCC[C@H]1C(=O)N[C@@H](CCCNC(=N)N)C(=O)N1CCC[C@H]1C(=O)N1CCC[C@H]1C(=O)N[C@@H](Cc1c[nH]cn1)C(=O)N1CCC[C@H]1C(=O)N[C@@H](CCCNC(=N)N)C(=O)N1CCC[C@H]1C(=O)N[C@H](C(=O)N[C@@H](CCCNC(=N)N)C(=O)N[C@H](C(=O)O)C(C)C)[C@@H](C)CC)[C@@H](C)CC` [Api805] (H-GNNRPIYIPRPRPPHPRPIRV-OH; N-terminus assumed), the Ki in test [2] is 489 nM. Also, the “change of MIC after transformation of sbmA_A31G/G219T-harboring plasmid” value in test [3] (compared with E. coli BW25113 ΔsbmA) was “not altered”. Further, in test [4], the Kd is 515 nM.

These data come from PMC9025336 (Antibiotics, 2022).
